ChEMBL document CHEMBL1201862, “PubChem BioAssay data set” (2004)
The source made the active and inactive calls.

Key:
[1] = molecular target: ADP-ribosylation factor GTPase-activating protein 1 (Rattus norvegicus, UniProt Q62848); assay: Fluorescence polarization-based biochemical high throughput dose response screening assay to identify inhibitors of ADP-ribosylation factor GTPase activating protein 1 (ARFGAP1).; format: functional
[2] = molecular target: Fructose-bisphosphate aldolase (Mycobacterium tuberculosis, UniProt P9WQA3); assay: Fluorescence-based biochemical high throughput dose response assay for inhibitors of the fructose-bisphosphate aldolase (FBA) of M. tuberculosis.; format: functional
[3] = molecular target: T1, Endoribonuclease toxin MazF (Escherichia coli K-12, UniProt P0AE70); assay: activation of MazEF endoribonuclease cleavage – biochemical, fluorescence, single-stranded RNA substrate, uHTS hits, dose response (AID 588481); format: functional
T1 sequence (P0AE70 whole entry): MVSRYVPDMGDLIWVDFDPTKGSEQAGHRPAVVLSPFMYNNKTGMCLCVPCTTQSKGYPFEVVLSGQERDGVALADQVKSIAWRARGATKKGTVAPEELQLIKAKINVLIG

[4] = molecular target: Heat shock protein HSP 90-alpha (Homo sapiens, UniProt P07900); format: functional, organism-based
[5] = molecular target: T1, Endoribonuclease toxin MazF; assay: substrate-only fluorescence increase artefacts – biochemical, single-stranded RNase substrate, counter-screen for MazEF activator project, dose response (AID 588502); format: functional
Melanocortin receptor 4 = Melanocortin receptor 4 (Homo sapiens, UniProt P32245); format: functional, cell-based;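 also: Cell-based assay with luminescence read-out, confirmatory dose-response testing for agonist activity of biased ligands at MC4R; human U2OS cells with tagged receptor and beta-arrestin; potency of agonists that increase receptor coupling to beta-arrestin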
[6] = molecular target: T2, Probable nicotinate-nucleotide adenylyltransferase (Staphylococcus aureus (strain N315), UniProt P65502); format: functional, Staphylococcus aureus subsp. aureus N315;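 as to IC50 Mean: confirmatory dose-response retesting of NadD inhibitor hits first found in an ultra-high-throughput screen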
[7] = molecular target: T2, Probable nicotinate-nucleotide adenylyltransferase; format: functional, Staphylococcus aureus subsp. aureus N315; conditions: read-out: IC50_Mean
[8] = molecular target: T3, Methionyl-tRNA synthetase, putative (Trypanosoma brucei brucei, UniProt Q38C91); format: functional, Trypanosoma brucei brucei strain 927/4 GUTat10.1
T3 sequence (Q38C91 whole entry): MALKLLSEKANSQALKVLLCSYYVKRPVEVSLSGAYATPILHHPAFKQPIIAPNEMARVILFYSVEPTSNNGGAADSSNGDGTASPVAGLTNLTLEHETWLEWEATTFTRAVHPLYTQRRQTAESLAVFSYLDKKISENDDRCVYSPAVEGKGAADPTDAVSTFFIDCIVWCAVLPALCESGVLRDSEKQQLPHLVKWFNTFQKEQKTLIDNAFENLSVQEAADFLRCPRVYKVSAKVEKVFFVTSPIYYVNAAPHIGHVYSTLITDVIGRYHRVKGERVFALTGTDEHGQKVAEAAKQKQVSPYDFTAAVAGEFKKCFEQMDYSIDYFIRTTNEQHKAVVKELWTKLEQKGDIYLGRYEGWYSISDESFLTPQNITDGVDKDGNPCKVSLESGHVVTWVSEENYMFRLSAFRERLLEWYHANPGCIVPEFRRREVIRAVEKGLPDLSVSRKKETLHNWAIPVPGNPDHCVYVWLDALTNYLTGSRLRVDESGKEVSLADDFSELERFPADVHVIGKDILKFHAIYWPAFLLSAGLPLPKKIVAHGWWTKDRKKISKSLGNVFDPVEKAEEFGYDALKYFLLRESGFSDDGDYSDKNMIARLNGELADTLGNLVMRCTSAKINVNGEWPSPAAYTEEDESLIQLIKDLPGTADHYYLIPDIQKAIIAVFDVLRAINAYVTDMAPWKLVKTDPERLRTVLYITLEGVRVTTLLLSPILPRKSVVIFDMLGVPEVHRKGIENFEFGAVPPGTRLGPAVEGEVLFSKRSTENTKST

[9] = molecular target: T3, Methionyl-tRNA synthetase, putative; format: functional, Trypanosoma brucei brucei strain 927/4 GUTat10.1; remark: listed apart in the source
[10] = blockers of HIV-1 envelope-mediated cell-cell fusion – cherry-pick, dose response (AID 652057); format: functional, cell-based
[11] = viability loss in CEM21 cells – cell-based, CellTiter-Glo luminescence, cherry-picked, cytotoxicity control for viral fusion inhibitor project, dose response (AID 652042); format: functional;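 also: potency for signal decrease meaning cytotoxicity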
[12] = blockers of HIV-1 ZM109 envelope-driven cell-cell fusion – HeLa effector, CEM target cells, luciferase, cherry-pick, dose response (AID 652058); format: functional, cell-based;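 also: luciferase signal from HIV-1 Env mediated cell-cell fusion of effector and target cells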
[13] = off-target signal loss in HeLa-CEM21 co-culture – HeLa F-luc CTL cells, cherry-picked, counter-screen for HIV-1 Env fusion inhibitor project, dose response (AID 652040); format: functional, cell-based;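 also: potency for signal decrease marking cytotoxic or nonspecific inhibition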
[14] = HIV-1 AD8 envelope cell-cell fusion blockers – cherry-pick, dose response (AID 652062); format: functional, cell-based;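 also: luciferase signal from cell-cell fusion driven by HIV-1 clade B AD8 Env; potency is for inhibitors of fusion seen as a drop in luminescence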
H9c2 = assay: cells; format: functional, cell-based; conditions: Rattus norvegicus, H9c2, Myocardium;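 also: confirmatory concentration-response retest of ultra-high-throughput screening hits for modulation of myocardial damage; cell death induced by hydrogen peroxide oxidative stress; compound pretreatment for 60 min then peroxide exposure for 2 h; potency is for protecting the cells against peroxide damage rather than for killing them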
[15] = molecular target: Long-chain-fatty-acid--AMP ligase FadD28 (Mycobacterium tuberculosis, UniProt P9WQ59); assay: Fluorescence polarization aasay to screen for inhibitors that compete for the binding of FadD28 to a bisubstrate Measured in Biochemical System Using Plate Reader - 2147-01_Inhibitor_Dose_CherryPick_Activity.; format: functional, Mycobacterium tuberculosis H37Rv
[16] = molecular target: T4, Sentrin-specific protease 8 (Homo sapiens, UniProt Q96LD8); format: functional
T4 sequence (Q96LD8 whole entry): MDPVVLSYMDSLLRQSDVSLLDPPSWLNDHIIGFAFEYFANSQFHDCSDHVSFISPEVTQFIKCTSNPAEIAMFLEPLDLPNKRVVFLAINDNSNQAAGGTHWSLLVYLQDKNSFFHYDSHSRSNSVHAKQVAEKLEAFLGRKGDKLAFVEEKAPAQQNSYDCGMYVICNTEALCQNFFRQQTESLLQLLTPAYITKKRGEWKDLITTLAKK

[17] = molecular target: T4, Sentrin-specific protease 8; format: functional; remark: listed apart in the source
Vero = assay: viability loss in Vero cells – cell-based, plate reader, cherry-pick samples, cytotoxicity control, dose response (AID 687020); format: functional; conditions: Chlorocebus sabaeus
Beta-lactamase [18] = molecular target: Beta-lactamase (Pseudomonas aeruginosa, UniProt Q79MP6);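 also: biochemical dose-response test of metallo-beta-lactamase enzyme inhibition, read out by epi-absorbance; purified recombinant IMP-1 metallo-beta-lactamase with nitrocefin as substrate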
Beta-lactamase [19] = molecular target: Beta-lactamase (Salmonella choleraesuis (strain SC-B67), UniProt Q5J463)
Genome polyprotein = Genome polyprotein (dengue virus type 2, UniProt P29990); assay: flavivirus cap methylation enzyme inhibition – biochemical, confirmation dose response, primary screen (AID 588689); format: functional
[20] = Counterscreen for inhibitors of Trypanosoma brucei methionyl tRNA synthetase (MetRS): Luminescence-based cell-based high throughput dose response assay to identify compounds that are cytotoxic to Jurkat human T lymphocyte cells.; format: functional
Cytochrome P450 2D6 = Cytochrome P450 2D6 (Homo sapiens, UniProt P10635);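 also: CYP2D6 member of a cytochrome P450 panel assay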
Cytochrome P450 1A2 = molecular target: T5, Cytochrome P450 1A2 (Homo sapiens, UniProt P05177);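 also: PubChem cytochrome P450 panel assay, CYP1A2 panel member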
T5 sequence (P05177 whole entry): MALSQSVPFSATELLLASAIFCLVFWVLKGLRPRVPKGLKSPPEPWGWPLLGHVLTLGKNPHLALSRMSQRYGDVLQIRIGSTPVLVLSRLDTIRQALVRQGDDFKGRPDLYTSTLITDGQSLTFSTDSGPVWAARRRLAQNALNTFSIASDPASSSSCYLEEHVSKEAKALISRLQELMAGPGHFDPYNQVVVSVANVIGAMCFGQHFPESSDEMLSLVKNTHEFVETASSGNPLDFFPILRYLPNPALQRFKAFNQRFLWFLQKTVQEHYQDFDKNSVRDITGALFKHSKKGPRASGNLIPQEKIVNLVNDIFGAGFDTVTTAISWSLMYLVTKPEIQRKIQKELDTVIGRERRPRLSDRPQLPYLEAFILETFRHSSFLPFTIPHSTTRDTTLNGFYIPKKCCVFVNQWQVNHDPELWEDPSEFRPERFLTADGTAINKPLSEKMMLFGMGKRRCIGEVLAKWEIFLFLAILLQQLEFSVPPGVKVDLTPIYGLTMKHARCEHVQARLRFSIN

Cytochrome P450 2C9 = Cytochrome P450 2C9 (Homo sapiens, UniProt P11712)
Aminopeptidase N = molecular target: T6, Aminopeptidase N (Plasmodium falciparum FcB1/Columbia, UniProt O96935); assay: malaria alanyl aminopeptidase activity blockers – biochemical, fluorogenic H-Leu-NHMec substrate, 1536-well (AID 1445); parameters: species or system Plasmodium falciparum 3D7, 3D7
T6 sequence (O96935 whole entry): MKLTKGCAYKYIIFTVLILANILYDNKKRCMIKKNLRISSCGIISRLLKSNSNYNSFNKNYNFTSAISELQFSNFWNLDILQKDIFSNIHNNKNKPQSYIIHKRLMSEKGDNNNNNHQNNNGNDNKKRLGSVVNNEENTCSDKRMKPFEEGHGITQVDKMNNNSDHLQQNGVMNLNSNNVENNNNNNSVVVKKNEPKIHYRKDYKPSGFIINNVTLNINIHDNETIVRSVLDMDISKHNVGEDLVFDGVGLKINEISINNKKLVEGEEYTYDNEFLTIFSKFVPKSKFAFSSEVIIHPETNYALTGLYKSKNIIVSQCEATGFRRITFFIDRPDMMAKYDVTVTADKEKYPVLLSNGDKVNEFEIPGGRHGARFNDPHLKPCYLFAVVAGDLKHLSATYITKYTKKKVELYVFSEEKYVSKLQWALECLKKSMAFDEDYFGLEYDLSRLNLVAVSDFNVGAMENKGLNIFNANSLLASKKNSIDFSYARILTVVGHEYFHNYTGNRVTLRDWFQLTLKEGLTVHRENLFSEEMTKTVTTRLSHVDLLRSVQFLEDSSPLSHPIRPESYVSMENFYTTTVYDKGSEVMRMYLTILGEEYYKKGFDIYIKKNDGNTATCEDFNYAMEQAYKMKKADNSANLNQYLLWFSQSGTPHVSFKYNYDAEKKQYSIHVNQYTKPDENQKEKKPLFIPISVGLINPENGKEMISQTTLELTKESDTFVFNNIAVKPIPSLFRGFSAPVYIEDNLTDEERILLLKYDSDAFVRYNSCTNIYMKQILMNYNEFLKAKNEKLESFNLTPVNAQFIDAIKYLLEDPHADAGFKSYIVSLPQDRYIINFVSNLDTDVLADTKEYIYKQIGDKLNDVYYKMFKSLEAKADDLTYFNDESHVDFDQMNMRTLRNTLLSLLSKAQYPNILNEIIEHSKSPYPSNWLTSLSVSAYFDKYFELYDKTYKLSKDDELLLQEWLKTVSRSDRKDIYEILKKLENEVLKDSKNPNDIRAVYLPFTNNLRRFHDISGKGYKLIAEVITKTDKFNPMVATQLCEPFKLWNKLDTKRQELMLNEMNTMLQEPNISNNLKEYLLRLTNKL

T2 sequence (P65502 whole entry): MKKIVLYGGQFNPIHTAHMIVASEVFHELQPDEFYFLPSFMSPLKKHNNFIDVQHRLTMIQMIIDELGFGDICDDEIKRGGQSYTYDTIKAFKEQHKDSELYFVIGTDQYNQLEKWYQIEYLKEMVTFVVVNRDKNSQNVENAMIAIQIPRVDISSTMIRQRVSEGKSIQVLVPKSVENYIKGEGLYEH
Chain of ADP-ribosylation factor GTPase-activating protein 1 (Q62848 whole entry): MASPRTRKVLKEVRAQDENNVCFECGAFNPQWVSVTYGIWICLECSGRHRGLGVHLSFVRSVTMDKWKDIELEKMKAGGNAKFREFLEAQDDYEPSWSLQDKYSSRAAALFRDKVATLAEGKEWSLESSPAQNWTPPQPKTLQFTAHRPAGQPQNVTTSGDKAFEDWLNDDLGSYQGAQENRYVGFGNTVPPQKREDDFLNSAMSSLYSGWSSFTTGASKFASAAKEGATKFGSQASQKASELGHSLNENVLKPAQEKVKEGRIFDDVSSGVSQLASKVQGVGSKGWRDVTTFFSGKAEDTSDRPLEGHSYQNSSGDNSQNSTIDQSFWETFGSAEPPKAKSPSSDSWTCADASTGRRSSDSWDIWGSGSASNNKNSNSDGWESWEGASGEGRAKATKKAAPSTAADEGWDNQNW
Chain of Genome polyprotein (P29990 2492-3391 limits assumed): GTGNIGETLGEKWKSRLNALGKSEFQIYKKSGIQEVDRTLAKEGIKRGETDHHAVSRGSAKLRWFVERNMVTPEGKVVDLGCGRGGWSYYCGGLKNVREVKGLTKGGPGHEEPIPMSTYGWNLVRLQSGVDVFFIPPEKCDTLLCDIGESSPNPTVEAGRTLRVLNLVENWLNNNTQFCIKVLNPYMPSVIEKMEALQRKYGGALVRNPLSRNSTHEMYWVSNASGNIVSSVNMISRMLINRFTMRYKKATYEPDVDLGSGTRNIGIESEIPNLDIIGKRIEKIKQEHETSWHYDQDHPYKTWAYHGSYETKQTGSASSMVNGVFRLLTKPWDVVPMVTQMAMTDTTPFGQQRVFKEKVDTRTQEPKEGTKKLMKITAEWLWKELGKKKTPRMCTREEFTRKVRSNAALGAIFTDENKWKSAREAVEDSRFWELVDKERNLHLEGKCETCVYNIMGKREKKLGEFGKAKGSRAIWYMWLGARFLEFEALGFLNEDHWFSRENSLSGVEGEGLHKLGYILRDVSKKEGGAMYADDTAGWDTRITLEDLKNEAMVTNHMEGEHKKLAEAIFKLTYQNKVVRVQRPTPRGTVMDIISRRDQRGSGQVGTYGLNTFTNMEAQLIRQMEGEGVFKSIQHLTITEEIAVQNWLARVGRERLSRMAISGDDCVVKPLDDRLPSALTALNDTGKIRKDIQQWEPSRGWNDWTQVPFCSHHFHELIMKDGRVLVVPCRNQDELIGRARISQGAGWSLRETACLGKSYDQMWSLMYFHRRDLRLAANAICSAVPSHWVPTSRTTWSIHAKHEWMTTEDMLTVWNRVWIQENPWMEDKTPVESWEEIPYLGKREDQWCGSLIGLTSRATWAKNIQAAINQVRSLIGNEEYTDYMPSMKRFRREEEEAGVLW
Chain of Fructose-bisphosphate aldolase (P9WQA3 whole entry): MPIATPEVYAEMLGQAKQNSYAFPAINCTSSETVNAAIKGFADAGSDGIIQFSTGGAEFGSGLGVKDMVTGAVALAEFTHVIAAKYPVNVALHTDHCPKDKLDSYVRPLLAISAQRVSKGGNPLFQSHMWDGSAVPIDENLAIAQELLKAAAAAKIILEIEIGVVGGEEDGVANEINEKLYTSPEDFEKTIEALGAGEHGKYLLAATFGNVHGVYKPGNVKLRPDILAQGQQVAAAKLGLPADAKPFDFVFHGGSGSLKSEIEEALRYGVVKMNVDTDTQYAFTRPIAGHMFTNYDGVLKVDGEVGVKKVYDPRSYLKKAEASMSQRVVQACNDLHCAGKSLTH
Chain of Long-chain-fatty-acid--AMP ligase FadD28 (P9WQ59 whole entry): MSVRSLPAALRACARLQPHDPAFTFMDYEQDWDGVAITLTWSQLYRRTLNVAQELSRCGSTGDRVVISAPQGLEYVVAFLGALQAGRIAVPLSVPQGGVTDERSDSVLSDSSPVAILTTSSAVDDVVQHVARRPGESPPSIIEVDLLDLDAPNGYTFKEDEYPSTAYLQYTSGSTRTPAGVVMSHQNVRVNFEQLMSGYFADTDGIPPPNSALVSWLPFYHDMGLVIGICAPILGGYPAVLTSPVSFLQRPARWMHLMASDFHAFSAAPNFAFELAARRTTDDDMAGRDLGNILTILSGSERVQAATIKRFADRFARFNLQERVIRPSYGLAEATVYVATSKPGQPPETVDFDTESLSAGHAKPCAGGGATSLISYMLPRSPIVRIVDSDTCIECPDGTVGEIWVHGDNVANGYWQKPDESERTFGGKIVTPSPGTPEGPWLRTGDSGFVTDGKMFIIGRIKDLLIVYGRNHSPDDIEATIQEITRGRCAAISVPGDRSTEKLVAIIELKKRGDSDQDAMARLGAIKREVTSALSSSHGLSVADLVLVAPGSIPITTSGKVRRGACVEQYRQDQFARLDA
Chain of Melanocortin receptor 4 (P32245 whole entry): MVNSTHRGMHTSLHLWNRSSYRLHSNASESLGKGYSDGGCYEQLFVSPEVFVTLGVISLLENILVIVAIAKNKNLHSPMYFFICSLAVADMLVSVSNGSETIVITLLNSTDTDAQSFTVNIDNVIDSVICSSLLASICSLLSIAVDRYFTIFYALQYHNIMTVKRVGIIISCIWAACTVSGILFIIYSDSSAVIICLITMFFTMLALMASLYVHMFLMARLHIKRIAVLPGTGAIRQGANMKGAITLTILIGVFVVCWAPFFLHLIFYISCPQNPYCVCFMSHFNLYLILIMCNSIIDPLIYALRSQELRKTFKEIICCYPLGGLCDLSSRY
Chain of Beta-lactamase (Salmonella choleraesuis (strain SC-B67), UniProt Q5J463) (Q5J463 whole entry): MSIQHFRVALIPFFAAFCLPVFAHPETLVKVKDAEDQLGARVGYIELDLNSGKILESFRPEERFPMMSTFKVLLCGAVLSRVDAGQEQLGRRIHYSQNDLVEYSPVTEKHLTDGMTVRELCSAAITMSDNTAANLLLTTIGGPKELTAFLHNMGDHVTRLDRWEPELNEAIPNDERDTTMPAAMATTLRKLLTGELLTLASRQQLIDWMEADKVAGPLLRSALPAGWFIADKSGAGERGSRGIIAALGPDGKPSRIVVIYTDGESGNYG
Chain of Beta-lactamase (Pseudomonas aeruginosa, UniProt Q79MP6) (Q79MP6 whole entry): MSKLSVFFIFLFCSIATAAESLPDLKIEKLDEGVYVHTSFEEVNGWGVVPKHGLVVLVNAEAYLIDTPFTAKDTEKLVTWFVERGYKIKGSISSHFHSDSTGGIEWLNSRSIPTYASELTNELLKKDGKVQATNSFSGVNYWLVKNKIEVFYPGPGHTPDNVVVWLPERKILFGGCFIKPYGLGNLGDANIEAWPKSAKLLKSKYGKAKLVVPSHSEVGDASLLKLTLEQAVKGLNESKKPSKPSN
Chain of Cytochrome P450 2D6 (P10635 whole entry): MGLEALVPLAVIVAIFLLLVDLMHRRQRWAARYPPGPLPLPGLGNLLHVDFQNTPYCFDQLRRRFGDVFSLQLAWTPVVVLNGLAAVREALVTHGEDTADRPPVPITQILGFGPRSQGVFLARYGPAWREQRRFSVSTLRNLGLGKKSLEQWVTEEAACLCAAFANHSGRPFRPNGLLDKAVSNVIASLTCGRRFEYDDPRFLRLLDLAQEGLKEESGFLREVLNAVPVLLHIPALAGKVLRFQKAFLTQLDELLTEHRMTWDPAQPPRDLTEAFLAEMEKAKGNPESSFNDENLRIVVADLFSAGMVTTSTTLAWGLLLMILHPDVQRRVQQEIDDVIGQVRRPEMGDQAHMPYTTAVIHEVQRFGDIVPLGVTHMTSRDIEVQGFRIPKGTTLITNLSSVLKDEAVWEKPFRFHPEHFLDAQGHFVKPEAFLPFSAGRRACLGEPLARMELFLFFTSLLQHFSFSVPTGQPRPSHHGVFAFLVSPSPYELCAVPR
Chain of Cytochrome P450 2C9 (P11712 whole entry): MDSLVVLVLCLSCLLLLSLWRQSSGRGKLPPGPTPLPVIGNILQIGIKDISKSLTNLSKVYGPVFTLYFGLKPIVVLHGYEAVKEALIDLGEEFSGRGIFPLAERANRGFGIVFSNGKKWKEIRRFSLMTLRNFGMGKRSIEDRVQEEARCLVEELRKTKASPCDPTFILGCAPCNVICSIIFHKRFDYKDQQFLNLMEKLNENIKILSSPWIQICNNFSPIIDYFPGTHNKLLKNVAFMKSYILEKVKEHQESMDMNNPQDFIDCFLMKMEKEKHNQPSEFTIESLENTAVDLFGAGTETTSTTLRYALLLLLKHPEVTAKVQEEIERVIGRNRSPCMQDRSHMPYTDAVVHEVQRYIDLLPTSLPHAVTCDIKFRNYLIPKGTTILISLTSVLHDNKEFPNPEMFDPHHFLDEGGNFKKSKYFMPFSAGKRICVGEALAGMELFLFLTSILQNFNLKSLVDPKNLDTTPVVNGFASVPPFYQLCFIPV

Cc1ccc(-c2nn(-c3ccccc3)cc2/C=C/C(=O)Nc2nccs2)cc1
IC50 [1]: 20.3 µM (inactive)

O=C(Nc1ccc2c(c1)OCCO2)c1cccs1
IC50 [2]: > 9.98 µM (inactive)

COc1ccc2oc(=O)c(-c3csc(Nc4cccc(O)c4)n3)cc2c1
EC50 [3]: > 99 µM (inactive) | AC50 [4]: 7.16 µM (active) | EC50 [5]: > 99 µM (inactive) | EC50 (Melanocortin receptor 4): > 89.2 µM (inactive) | IC50 [6]: 19.2 µM (active) | IC50 [7]: 29 µM (active)

Cc1cccc(NS(=O)(=O)c2ccc3nc(-c4ccccc4)[nH]c3c2)c1C
IC50 [8]: 119 µM (inactive) | IC50 [9]: 14.6 µM (inactive)

CCOc1ccc(C(O)(CCC(C)C)C(CN2CCOCC2)c2ccccc2)cc1 (stereo not given)
AC50 [10]: 3.6 µM (active) | AC50 [11]: 26.8 µM (active) | AC50 [12]: 3.65 µM (active) | AC50 [13]: 5.42 µM (active) | AC50 [14]: 9.83 µM (active)

COC(=O)c1cccc(Nc2nc(-c3cccnc3)nc3ccccc23)c1
IC50 (H9c2): 4.96 µM (active) | IC50 [1]: 38.3 µM (inactive)

COc1cccc(NC(=O)CC(=O)c2ccc([N+](=O)[O-])cc2)c1
AC50 [15]: 94.1 µM (active)

O=C(c1ccccc1)[C@@H]1[C@@H](C(=O)c2ccc(F)cc2)[C@@]2(C(=O)Nc3ccccc32)[C@H]2c3ccccc3C=CN12
IC50 [16]: 12.1 µM (active) | IC50 [17]: 1.21 µM (active)

Cc1ccc(NC(=O)Cn2cccc2C2=NC(c3ccccc3)CO2)cc1C (stereo not given)
AC50 (Vero): 27.9 µM (active)

O=C(CCN1C(=O)/C(=C/c2ccc(Cl)cc2)SC1=S)NCCCn1ccnc1
IC50 (Beta-lactamase [18]): > 59.6 µM (inactive) | IC50 (Beta-lactamase [19]): > 59.6 µM (inactive)

O=C1CC(Nc2ccc([N+](=O)[O-])cc2)=NN1c1c(Cl)cc(Cl)cc1Cl
IC50 (Genome polyprotein): 48.4 µM (active) | IC50 [16]: 12.3 µM (active) | IC50 [17]: 16 µM (active)

CSc1nccc(Oc2ccccc2Cl)n1
IC50 [2]: > 9.99 µM (inactive)

NC(Cc1ccc(C(F)(F)F)cc1)c1csc(NC(=O)Nc2ccccc2)n1 (stereo not given)
EC50 (Melanocortin receptor 4): > 89.2 µM (inactive) | IC50 [8]: 1.47 µM (active) | IC50 [20]: 24.7 µM (inactive) | IC50 [9]: 2.39 µM (active) | AC50 [10]: 2.85 µM (active) | AC50 [11]: 11.3 µM (active) | AC50 [12]: 2.21 µM (active) | AC50 [13]: 3.13 µM (active) | AC50 [14]: 8.46 µM (active)

COC(=O)C[C@H]1c2cc(C(F)(F)F)ccc2S(=O)(=O)N1Cc1ccc(OC)cc1
AC50 (Vero): 34.6 µM (active)

COc1ccccc1NCc1nnc(SCC(=O)N/N=C/c2ccco2)n1-c1ccc(Cl)cc1Cl
AC50 [15]: > 100 µM (inactive) | AC50 (Cytochrome P450 2D6): 28.2 µM (inconclusive) | AC50 (Cytochrome P450 1A2): 28.2 µM (inconclusive) | AC50 (Cytochrome P450 2C9): 35.5 µM (inconclusive)

CCCOc1ccc(C(=O)N/N=C/c2ccc(-c3ccc(S(=O)(=O)Nc4ncccn4)cc3)o2)cc1
IC50 (Aminopeptidase N): 26.1 µM (active) | IC50 (Genome polyprotein): > 100 µM (active) | IC50 [6]: 6.45 µM (active) | IC50 [7]: 31 µM (active)
